Data as given in patent publication US8192935B2, “Methods for assessing cisplatin resistance, disease progression, and treatment efficacy in ovarian cancer as related to MetAP2 expression” (The Penn State Research Foundation, priority 2003, dated 2012).
Read-outs that look alike come from different tables or passages of the source.

How the values were obtained:
human colon cancer = details: Tanaka et al., 1995; cited from earlier work
MetAP-2 [1] = biological target: MetAP-2 (Homo sapiens, UniProt P50579); details: Griffith et al.; cited from earlier work
OVCA 429 cells = details: for 429: increased sensitivity to cis-platin: OVCA 429 cells with specific siRNA
MetAP-2 [2] = details: several different cell types; Wang et al., 2000; cited from earlier work
MetAP-2 messenger RNA = assay: siRNA knockdown, quantitative real-time PCR; details: OVCA 429 (FIG. 44)
Procedure: The reaction mixture was then incubated at 42° C. for 60 minutes. cDNA dilutions from 1:4 to 1:256 were prepared. […] Green PCR Master Mix (Qiagen), 0.3 μM of forward primer, 0.3 μM of reverse primer, and RNase free water were added to a final volume of 45 μl.
Sequence detection was determined using the ABI Prism 7700 (Applied Biosystems, Inc., Foster City, Calif.) sequence detection system or the MJ Research (Waltham, Mass.) Opticon II system as follows: PCR initial activation step was carried out for 15 minutes at 95° C.; samples were denatured for 15 seconds at 94° C., annealed for 30 seconds at 53° C. (55° C. when the Opticon II system was used), and extended for 30 seconds at 72° C. (data was acquired during this step); the PCR reaction was repeated for 50 cycles. A melting curve analysis was prepared by adding on the following steps: 15 seconds at 95° C., 20 seconds at 60° C., and 20 seconds at 95° C.
The siRNA experiments described herein were conducted using the siPORT Lipid protocol (Ambion). […]
Cells were transfected with the siRNA constructs following instruction from the supplier (Ambion). […] The OD260 readings of siRNA were performed in duplicate at a 1:100 dilution. The readings were averaged, then multiplied by the dilution factor and then by multiplied by 40 (the OD260of 1 is equal to 40 μg/ml of RNA) to get the final concentration of siRNA in μg/ml. […]

RNPS1 (AF015608) = assay: siRNA-mediated knockdown of gene expression; format: cell-based, human; details: ovarian cancer cell lines
S100A11 message = assay: siRNA knockdown of gene expression; format: cell-based, human; details: OVCA 429 (FIG. 57)
SAPK/Erk1 (L36870) = assay: siRNA-mediated knockdown of gene expression; format: cell-based, human; details: ovarian cancer cell lines
OVCAR-3 cells = assay: MTT assay, cis-platin sensitivity with siRNA; format: cell-based, human; details: OVCAR-3 cells with specific siRNA
[3] = system: SRB1/CLA1/CD3611 (BCO22087); assay: siRNA-mediated knockdown of gene expression; format: cell-based, human; details: ovarian cancer cell lines
WDR1 (AB010427) = assay: siRNA-mediated knockdown of gene expression; format: cell-based, human; details: OVCA 429 cells
eEF1ε (BC005291) = assay: siRNA-mediated knockdown of gene expression; format: cell-based, human; details: ovarian cancer cell lines
e-IF2Bε (BC013590) = assay: siRNA-mediated knockdown of gene expression; format: cell-based, human; details: ovarian cancer cell lines

Sequence of MetAP-2 (Homo sapiens, UniProt P50579) (P50579 whole entry, species assumed): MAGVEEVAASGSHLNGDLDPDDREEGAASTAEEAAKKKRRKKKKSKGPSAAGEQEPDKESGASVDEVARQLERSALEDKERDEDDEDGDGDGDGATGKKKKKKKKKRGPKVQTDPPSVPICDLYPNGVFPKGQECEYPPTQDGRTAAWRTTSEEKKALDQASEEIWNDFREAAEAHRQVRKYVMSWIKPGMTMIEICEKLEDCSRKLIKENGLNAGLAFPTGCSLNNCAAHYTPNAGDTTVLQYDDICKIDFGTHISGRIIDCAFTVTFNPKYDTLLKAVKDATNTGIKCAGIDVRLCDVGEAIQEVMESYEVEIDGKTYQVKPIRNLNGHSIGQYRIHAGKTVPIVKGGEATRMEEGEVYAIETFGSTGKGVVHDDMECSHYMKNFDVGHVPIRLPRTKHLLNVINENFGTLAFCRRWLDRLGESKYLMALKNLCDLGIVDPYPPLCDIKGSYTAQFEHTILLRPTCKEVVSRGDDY

CO[C@@H]1[C@H](OC(=O)NC(=O)CCl)CC[C@]2(CO2)[C@H]1[C@@]1(C)O[C@@H]1CC=C(C)C [TNP-470]
hepatic metastasis of human colon cancer (human colon cancer): can be prevented
inhibition of the methionine aminopeptidase activity of MetAP-2 (MetAP-2 [1]): covalently binds to and inhibits

CO[C@@H]1[C@H](OC(=O)/C=C/C=C/C=C/C=C/C(=O)O)CC[C@]2(CO2)[C@H]1[C@@]1(C)O[C@@H]1CC=C(C)C [fumagillin]
effect on the action of cis-platin (OVCA 429 cells; OVCA 429, 0.1 μg/ml fumagillin, 4 hours): enhancement of the effect of cis-platin
effect on the action of cis-platin (OVCA 429 cells; OVCA 429, 0.1 μg/ml fumagillin, 8 hours): enhancement of the effect of cis-platin
effect on the action of cis-platin (OVCA 429 cells; OVCA 429, 0.1 μg/ml fumagillin, regardless of the length of incubation time (FIGS. 41 and 42)): enhancement of the effect of cis-platin
effect on the action of cis-platin (OVCA 429 cells; OVCA 429, 10 μg/ml fumagillin, regardless of the length of incubation time (FIGS. 41 and 42)): opposite effect
cell survival with fumagillin alone (OVCA 429 cells; OVCA 429, very high concentrations of fumagillin, 4 hours (FIG. 40)): up to 80%
expression of MetAP-2 after treatment (MetAP-2 [2]): increased expression of MetAP-2
inhibition of the methionine aminopeptidase activity of MetAP-2 (MetAP-2 [1]): covalently binds to and inhibits

MetAP-2 siRNA #2: siRNA to MetAP-2; target sequence AAGCA CAT CGA CAA GTT AGA A (guide AAGCACATCGACAAGTTAGAA; target site or template, no part of the molecule; listed as DNA, chemistry not given here; listed as Homo Sapiens)
levels of MetAP-2 expression (MetAP-2 messenger RNA): did not result in a reduction

MetAP-2 siRNA #3: siRNA to MetAP-2; target sequence AAACA GTG CCG ATT GTG AAA G (guide AAACAGTGCCGATTGTGAAAG; target site or template, no part of the molecule; listed as DNA, chemistry not given here; listed as Homo Sapiens)
levels of MetAP-2 expression (MetAP-2 messenger RNA): did not result in a reduction

RNPS1 siRNA #1: siRNA to RNPS1; target sequence AATATTCATACGGCATGGACT (guide SDNAATATTCATACGGCATGGACT; target site or template, no part of the molecule; listed as DNA, chemistry not given here; listed as Homo Sapiens)
429: increased sensitivity to cis-platin (OVCA 429 cells): yes
reduction in the level of RNPS1 mRNA (RNPS1 (AF015608)): 35%

S100A11 siRNA #1: siRNA to S100A11; AA AGG ATG GTT ATA ACT ACA C (guide AAAGGATGGTTATAACTACAC; target site or template, no part of the molecule; listed as DNA, chemistry not given here; listed as Homo Sapiens)
knockdown of S100A11 gene expression levels (S100A11 message): 50%

S100A11 siRNA #2: siRNA to S100A11; AA GAA ACT GGA CAC CAA CAG T (guide AAGAAACTGGACACCAACAGT; target site or template, no part of the molecule; listed as DNA, chemistry not given here; listed as Homo Sapiens)
knockdown of S100A11 gene expression levels (S100A11 message): 25%

SAPK/Erk1 siRNA #2: siRNA to SAPK/Erk1; target sequence AAGCGCATCACGACAAGGATA (guide AAGCGCATCACGACAAGGATA; target site or template, no part of the molecule; listed as DNA, chemistry not given here; listed as Homo Sapiens)
reduction in the level of SAPK mRNA (SAPK/Erk1 (L36870)): 60%
OVCAR-3: increased sensitivity to cis-platin (OVCAR-3 cells): yes
429: increased sensitivity to cis-platin (OVCA 429 cells): yes

SRB1 siRNA #1: siRNA to SRB1; target sequence AAGCAGCAGGTCCTTAAGAAC (guide AAGCAGCAGGTCCTTAAGAAC; target site or template, no part of the molecule; listed as DNA, chemistry not given here; listed as Homo Sapiens)
reduction in the level of SRB1 mRNA [3]: 60%
OVCAR-3: increased sensitivity to cis-platin (OVCAR-3 cells): yes
429: increased sensitivity to cis-platin (OVCA 429 cells): yes

SRB1 siRNA #3: siRNA to SRB1; target sequence AATTCAGAACGTCAGCACCTG (guide AATTCAGAACGTCAGCACCTG; target site or template, no part of the molecule; listed as DNA, chemistry not given here; listed as Homo Sapiens)
reduction in the level of SRB1 mRNA [3]: successful in reducing the expression of SRB1

WDR1 siRNA #1: siRNA to WDR1; target sequence AATGGAAAGTGCGTCATCCTA (guide AATGGAAAGTGCGTCATCCTA; target site or template, no part of the molecule; listed as DNA, chemistry not given here; listed as Homo Sapiens)
reduction of WDR1 mRNA levels compared to control (WDR1 (AB010427)): approximately 85%
OVCAR-3: increased sensitivity to cis-platin (OVCAR-3 cells): yes
429: increased sensitivity to cis-platin (OVCA 429 cells): no

WDR1 siRNA #2: siRNA to WDR1; target sequence AAGTTCACAATTGGCGACCAC (guide AAGTTCACAATTGGCGACCAC; target site or template, no part of the molecule; listed as DNA, chemistry not given here; listed as Homo Sapiens)
reduction of WDR1 mRNA levels compared to control (WDR1 (AB010427)): approximately 75%

WDR1 siRNA #3: siRNA to WDR1; target sequence AAGTGCTTCAGCATCGACAAC (guide AAGTGCTTCAGCATCGACAAC; target site or template, no part of the molecule; listed as DNA, chemistry not given here; listed as Homo Sapiens)
reduction of WDR1 mRNA levels compared to control (WDR1 (AB010427)): approximately 70%

eEF1ε siRNA #1: siRNA to eEF1ε; target sequence AACAGGATTGACTACTATAGC (guide AACAGGATTGACTACTATAGC; target site or template, no part of the molecule; listed as DNA, chemistry not given here; listed as Homo Sapiens)
reduction in the level of eEF1ε mRNA (eEF1ε (BC005291)): 65%

eEF1ε siRNA #2: siRNA to eEF1ε; target sequence AATACAGGGTCACTCAAGTAG (guide AATACAGGGTCACTCAAGTAG; target site or template, no part of the molecule; listed as DNA, chemistry not given here; listed as Homo Sapiens)
reduction in the level of eEF1ε mRNA (eEF1ε (BC005291)): successful in reducing the expression of eEF1ε

eIF2Bε siRNA #1: siRNA to e-IF2Bε; target sequence AATGTGGTTCGAATAATTACA (guide AATGTGGTTCGAATAATTACA; target site or template, no part of the molecule; listed as DNA, chemistry not given here; listed as Homo Sapiens)
OVCAR-3: increased sensitivity to cis-platin (OVCAR-3 cells): yes
reduction in the level of e-IF2Bε mRNA (e-IF2Bε (BC013590)): 57%
429: increased sensitivity to cis-platin (OVCA 429 cells): yes

eIF2Bε siRNA #2: siRNA to e-IF2Bε; target sequence AAACTCGAGATGACTTTGTGC (guide AAACTCGAGATGACTTTGTGC; target site or template, no part of the molecule; listed as DNA, chemistry not given here; listed as Homo Sapiens)
reduction in the level of e-IF2Bε mRNA (e-IF2Bε (BC013590)): 54%

eIF2Bε siRNA #3: siRNA to e-IF2Bε; target sequence AATCAACAGCTGCAGAGGTTC (guide AATCAACAGCTGCAGAGGTTC; target site or template, no part of the molecule; listed as DNA, chemistry not given here; listed as Homo Sapiens)
reduction in the level of e-IF2Bε mRNA (e-IF2Bε (BC013590)): 43%
